Reference: PMC6405172, “In vitro activity and mode of action of phenolic compounds on Leishmania donovani” (PLoS Neglected Tropical Diseases, 2019)

Legend:
[1] = Cytotoxicity of compounds on mammalian cells (MTT); type: cell-based; conditions: mouse, Raw 264.7 macrophage cells, Raw 264.7 cells, read-out: Macrophages CC50 (μM) ±SD
Description: Raw 264.7 cells were seeded into 96-well plates at (1 x 10^6 cells) in DMEM supplemented with 10% FBS, 100 μg/mL streptomycin, 100 u/mL penicillin-G, 2g/L NaHCO3 and incubated at 37°C for 24 hours in 5% CO2. The cells were treated with 0–50 μg/mL concentrations of the phenolic compounds for 48 hours at 37°C in 5% CO2. Deferoxamine and amphotericin B at 0–50 μg/mL concentrations were used as positive controls. Cell viability was estimated by measuring the mitochondria oxidative activity by MTT assay and absorbance was read at 570 nm using Thermo Scientific Varioskan LUX. Selectivity index (SI) was calculated as the ratio of the CC50 to IC50 values.

[2] = tested on: Leishmania donovani promastigotes; assay: Promastigote viability assay (MTT); type: cell-based; conditions: for IC50: Leishmania donovani, MTT, 72 hours at 25°C, read-out: Promastigotes IC50 (μM) ± SD; for Selectivity Index (CC50/IC50), promastigotes: CC50 Raw 264.7 / IC50 promastigotes
Description: The MTT assay was done as previously described. Briefly, promastigotes (2 x 10^5 cells) were cultured in freshly prepared M-199 medium supplemented with 10% heat inactivated fetal bovine serum in the presence or absence of varying concentrations of the phenolic compounds (0–50 μg/mL) for 72 hours at 25°C. Amphotericin B (0–50 μg/mL) and deferoxamine (0–50 μg/mL) were used as positive controls. After incubation, 5 mg/mL MTT solution was added to the promastigotes in each well and incubated for 3 hours at 25°C. In this assay, the yellow tetrazolium MTT dye was reduced to insoluble formazan crystals (purple color) in living cells using NADH as their reducing agent. Formazan crystals formed after incubation were solubilized with acidified isopropanol and incubated at 37°C for 30 min. The change in color from yellow to purple was read at an absorbance of 570 nm using Thermo Scientific Varioskan LUX. The cell viability and IC50 were determined from the concentration response curve generated using GraphPad Prism 6.0 Software.

[3] = tested on: ribonucleotide reductase (RNR); assay: RT-qPCR mRNA expression of RNR; type: cell-based, Leishmania donovani; conditions: promastigotes, 24 hours; for RNR Relative quantity: Fig 7C
Description: Promastigotes (1 x 10^7 cells) were separately treated with rosmarinic acid, apigenin, amphotericin B and deferoxamine, harvested after 24 hours incubation at 25°C. The parasites were then pelleted by centrifugation at 239 × g for 10 min and the pellet was re-suspended in 1 mL TRIzol. Samples were incubated overnight at -80°C and total RNA was extracted as described by the manufacturer’s protocol using Quick-RNA MiniPrep Plus (Zymo Research, USA). Purity of total RNA was determined to be approximately 2.0 using a Nanodrop. The oligonucleotide primers for the amplification of the iron dependent enzymes—ribonucleotide reductase (RNR) (3’[…] and 5’CAACAACTTCTGCGCATCG), iron superoxide dismutase A (FeSOD) (3’[…] and 5’[…]) and Leishmania iron transporter 1 (LIT1) (3’[…] and 5’ […]) were designed using sequences of Leishmania reference genome from tritrypdb.org (http://tritrypdb.org/tritrypdb/) and Primer 3 software. The oligonucleotide primers used in amplifying the housekeeping gene Histone 2A were (3’ […] and 5’[…]). The RT-qPCR reaction was conducted as described by manufacturer’s protocol with final concentrations of oligonucleotide primers as 0.4 μM, 1x Luna Universal One-Step Reaction mix, 1x Luna WarmStart RT Enzyme Mix and template RNA ≤ 1 μg. All the RT-PCR products were standardized with respect to the endogenous control, Histone 2A. The levels of the mRNA transcripts were obtained using the QuantStudio 5 Real-Time PCR System (Applied Biosystems). The data represent three independent experiments done in triplicate and a fold change in gene expression of >2 was considered significant.

[4] = tested on: L. donovani promastigotes; assay: Cell cycle analysis by flow cytometry; type: cell-based, Leishmania donovani; conditions: 24 hours; for increase in G0/G1 cells / decrease in the number of parasites at the M phase: 2x IC50 (amphotericin B 1/2 IC50); for increase in G0/G1 cells: versus untreated 34.6%
Description: Cell cycle analysis of treated and untreated L. donovani promastigotes was performed using flow cytometry. […] The fixed cells were harvested, resuspended in 1x PBS for 1 min and washed twice in 1x PBS. Staining solution (Guava cell cycle reagent) was added and incubated at room temperature for 30 min. The percentage cell count in G0, G1, S, G2 and M phases of the cell cycle were determined with BD LSR Fortessa™^. X-20 analyzer (BD Biosciences) and data was analyzed with FlowJo software.

[5] = tested on: Leishmania donovani intracellular amastigotes; assay: Infectivity index of infected macrophages (DAPI, fluorescence microscopy); type: cell-based; conditions: 48 hours; for infectivity values (infectivity index): concentration not given
Description: Amastigote cultures were prepared as reported by Jain and colleagues. Briefly, Raw 264.7 cells (4 x 10^7 cells) were seeded in 4 chamber slides and 1 x 10^7 cells in 96 well plates and incubated for 24 hours at 37°C in 5% CO2. The RAW 264.7 cells were infected with metacyclic promastigotes (1 x 10^8 cells) at an infection ratio of 1:10 macrophage: parasites and incubated for 24 hours at 37°C in 5% CO2. The overlying medium was removed, and the monolayer intracellular amastigotes were carefully washed four times with serum free M199 to remove free parasites. Freshly prepared M199 containing 10% FBS and the test compounds at concentrations ranging from 0–50 μg/mL were added to the infected cells and incubated for 48 hours at 37°C in 5% CO2. Triplicate incubations were performed in all the experiments. The chamber slides were washed thrice after incubation with M199 without FBS. The slides were then fixed in absolute methanol for 30 sec, rehydrated in 1x PBS for 5 min and stained with DAPI for 15 min. The slides were viewed by fluorescence microscopy and the number of infected macrophages counted using ImageJ Software to determine the infectivity index and IC50 values for amastigotes.

SMILES: C[C@@H]1[C@H](O)[C@@H](C)/C=C/C=C/C=C/C=C/C=C/C=C/C=C/[C@H](O[C@@H]2O[C@H](C)[C@@H](O)[C@H](N)[C@@H]2O)C[C@@H]2O[C@](O)(C[C@@H](O)C[C@@H](O)[C@H](O)CC[C@@H](O)C[C@@H](O)CC(=O)O[C@H]1C)C[C@H](O)[C@H]2C(=O)O [Amphotericin B, reference compound]
- CC50 at 48 h [1]: 15.75 ± 0.03 µM
- IC50 [2]: 6.56 ± 0.06 µM
- increased expression of RNR [3]: 3 fold
- RNR Relative quantity [3]: 3.2
- increase in G0/G1 cells [4]: 13.1%
- change in the number of parasites at the S phase ([4]; versus untreated): significant increase
- infectivity index ([5]; 3.12 μg/mL): 56

SMILES: O=c1cc(-c2ccc(O)cc2)oc2cc(O)cc(O)c12 [Apigenin, apigenin]
- CC50 at 48 h [1]: 237.9 ± 0.03 µM
- Selectivity Index (CC50/IC50), promastigotes [2]: 10.45
- IC50 [2]: 22.77 ± 0.01 µM
- increased expression of RNR [3]: 3 fold
- RNR Relative quantity [3]: 2.5
- decrease in the number of parasites at the M phase ([4]; versus untreated): 6.8%
- increase in G0/G1 cells [4]: 8%
- infectivity values (infectivity index) [5]: 152.2

SMILES: CC(=O)N(O)CCCCCNC(=O)CCC(=O)N(O)CCCCCNC(=O)CCC(=O)N(O)CCCCCN [Deferoxamine, deferoxamine, reference compound]
- CC50 at 48 h [1]: 26.88 ± 0.02 µM
- Selectivity Index (CC50/IC50), promastigotes [2]: 2.60
- IC50 [2]: 10.35 ± 0.01 µM
- decrease in the expression of RNR [3]: 80 % reduction
- RNR Relative quantity [3]: 0.2
- decrease in the number of parasites at the M phase ([4]; versus untreated): 7.7%
- increase in G0/G1 cells [4]: 7%
- infectivity values (infectivity index) [5]: 177

SMILES: O=C(/C=C/c1ccc(O)c(O)c1)O[C@H](Cc1ccc(O)c(O)c1)C(=O)O [Rosmarinic acid, rosmarinic acid]
- CC50 at 48 h [1]: 245.6 ± 0.3 µM
- Selectivity Index (CC50/IC50), promastigotes [2]: 15.03
- IC50 [2]: 16.34 ± 0.1 µM
- decrease in the expression of RNR [3]: 90 % reduction
- RNR Relative quantity [3]: 0.1
- decrease in the number of parasites at the M phase ([4]; versus untreated): 8.0%
- increase in G0/G1 cells [4]: 7.1%
- infectivity values (infectivity index) [5]: 140
